The test system of experiment [1] is cord blood CD34+ cells. Briefly: Polarization of CB CD34+ cells upon adhesion to hyaluronic acid. Format: cell-based, human. Particulars: CB CD34+ cells on HA-coated cover slips, 2 hours at 37° C.
Experimental: Enriched CB CD34^+ cells (1×10^5 to 2×10^5 cells per well) were plated on HA-coated cover slips for 2 hours at 37° C., either untreated or treated with SKF or 7-OH-DPAT. Samples were processed for microscopic observation as described (Goichberg et al., 2001). In brief, the adherent cells were fixed with 3% paraformaldehyde (Merck, Darmstadt, Germany) and, if indicated, permeabilized in 0.5% Triton X-100 (Sigma-Aldrich). Samples were indirectly immunolabeled at room temperature in a humidified chamber with using purified polyclonal rabbit anti human Dopamine D5 antibodies (Calbiochem, Nottingham, UK) (MCAP89; Serotec). The secondary antibodies used were Goat anti rabbit Alexa 488 conjugated (Molecular Probes, Eugene Oreg.). Phalloidin—TRITC used to detect polymerized actin, was purchased from Sigma-Aldrich. Following labeling, cells were mounted in Elvanol (Mowiol 4-88, Hoechst, Frankfurt, Germany). Immunofluorescence images were acquired using scientific-grade CCD camera and processed by the Delta Vision system using Resolve 3D software (Applied Precision, Issaquah, Wash.).
We assessed changes in morphology of cord blood CD34^+ cells upon adhesion to hyaluronic in the presence or the absence of the dopamine agonists SFK or 7-OH-DPAT.
Experiment [2] relates to murine bone marrow mononuclear cells. In words: Spontaneous migration of bone marrow mononuclear cells from treated mice. Type of experiment: in vivo. As to conditions: cells from mice treated with G-CSF plus agonist compared to G-CSF alone.
Experiment [3] relates to human CD34+ cells. In words: Engraftment of ex-vivo treated human CD34+ cells in bone marrow of irradiated NOD/SCID mice. As to conditions: for engraftment in the murine BM compared to control cells: MPB CD34+ cells incubated 2-4 days with 1 μM SKF or 100 ng/ml 7-OH-DPAT before injection, human CD45 in BM 5 weeks post injection; for engraftment of human CD34+ cells in NOD/SCID mice: cord blood CD34+ cells incubated 2 days with GM-CSF 5 ng/ml with or without the neurotransmitter prior to injection.
Experimental: (ii) Mice. […] Eight-ten week old mice were sublethally irradiated (375 cGy, from a 60 Co source) and transplanted with human cells as indicated (2×10^5 cells/mouse) 24 hours post irradiation.
(iii) Cell transplantation. Cells were injected into the tail vein of NOD/SCID in 0.5 ml of RPMI supplemented with 10% FCS.
(iv) Assessment of cell engraftment. Recipient mice were irradiated with a sublethal (350 cGy) dose from a Cesium source 24 hours prior to injection of cells. MPB or CB CD34^+ cells (2-3×10^5/mouse) were treated with SKF or 7-OH-DPAT for 2-4 days and injected i.v. into NOD/SCID mice. Mice were sacrificed 5-6 weeks post transplantation of human cells for assessing human cell engraftment assessment. BM (femur, tibia and pelvis bones flushed with a syringe), spleen, and peripheral blood cells were harvested and resuspended into single cell suspensions. WBCs were counted and in some experiments MNCs were isolated from samples by standard separation on Ficol-Hypaque (Pharmacia Biotech). Human cell engraftment was assayed by flow cytometry (FACSCalibur, BD). Cells were triple-stained with CD45-FITC, CD38-PE and CD34-APC (Becton Dickinson) antibodies. Human plasma and mouse IgG were used to block Fc receptors. Human leukocytes were gated according to their expression of the pan-leukocyte marker CD45, and amongst this population the percentage of CD34^+/CD38^−/low primitive cells was determined.
To assess the effect of dopamine receptor on engraftment of stem cells, mobilized peripheral blood (MPB) enriched human CD34^+ cells treated ex-vivo with the dopamine agonists SKF or 7-OH-DPAT were transplanted in NOD/SCID mice and engraftment of human cell in the murine BM was determined. Briefly, 1-3×10^5 MPB CD34^+ cells were incubated for 2-4 days at 37° C. in RPMI supplemented with 10% FCS, penicillin streptomycin and L-Glutamine and treated with the dopamine receptor agonists (1 μM) SKF or (100 ng/ml) 7-OH-DPAT or were left untreated. After the incubation, the cells were injected in irradiated NOD/SCID mice. The mice were sacrificed 5 weeks post injection, BM was extracted and the BM cells were labeled for the human CD45 marker.
The experimental conditions were similar to those conducted with the dopamine agonists. […] For engraftment assay, cells were incubated for 2 days in RPMI supplemented with GM-CSF 5 ng/ml.

The test system of experiment [4] is cord blood CD34+ cells. Briefly: Progenitor colony forming assay (CFU) in semi solid cultures. As to conditions: for colony (CFU-C) formation in the presence of GM-CSF: IL-3 plus GM-CSF 5 ng/ml, scored day 14; for colony (CFU-C) formation in the presence of GM-CSF / colony formation, culture not supplemented with myeloid cytokines: SKF 1 μM or 7-OH-DPAT 100 nM; for colony formation, culture not supplemented with myeloid cytokines: no GM-CSF or G-CSF; for clonogenic capacity of human cord blood CD34+ cells: epinephrine 10 nM, norepinephrine 1 and 10 nM added to the methyl cellulose. Type of experiment: cell-based, human. On the procedure:
(vii) Progenitor colony forming assay (CFU). In order to detect the levels of human progenitors, semisolid cultures were carried out as previously described (Peled et al. 1999). In brief, CD34^+ cells (1×10^3 cells/ml) were plated in 0.9% methylcellulose (Sigma), 30% FCS, 5×10^−5M 2ME, 50 ng/ml SCF, 5 ng/ml IL-3, 5 ng/ml GM-CSF (R&D), and 2 u/ml Erythropoietin (Orto Bio Tech, Don Mills, Canada) together with the dopamine agonists/antagonist. In some experiments the cells were pre-incubated for 4 days with the agonists/antagonist prior to plating in the semisolid culture. The cultures were incubated at 37° C. in a humidified atmosphere containing 5% CO2 and scored 14 days later for myeloid or erythroid colonies by morphologic criteria. In experiments where the level of in vivo engraftment by primitive human cells was determined, the semisolid media contained 15% human plasma and 15% FCS.
GM-CSF and G-CSF are known for their role in myeloid differentiation and in stem cell regulation. It is common practice to add these cytokines to progenitor colony forming assay (CFU) in order to facilitate detection of human progenitors. […] We therefore tested whether up regulation of dopamine receptor levels affects progenitor development in vitro. For this purpose cord blood CD34^+ cells were seeded in semi solid cultures (1×10^3 cells/ml in 1 ml) supplemented with the cytokines Epo (2 u/ml; Orto Bio Tech, Don Mills, Canada.), SCF (50 ng/ml; R&D) and IL-3 (5 ng/ml R&D) and with GM-CSF (5 ng/ml; R&D) or G-CSF (100 ng/ml; Roche) in order to up regulate dopamine receptor levels. To evaluate the effect of increased dopamine receptor activity, the semi solid cultures were supplemented with dopamine agonist SKF (1 μM) or 7-OH-DPAT (100 nM) or with medium as a control.
Next, the effect of the adrenergic neurotransmitters epinephrine (10 nM) and norepinephrine (1 and 10 nM) on proliferation of human CD34+ cells was assessed. The experimental conditions were similar to those conducted with the dopamine agonists. For colony assay, epinephrine and norepinephrine were added to the methyl cellulose. […] For engraftment assay, cells were incubated for 2 days in RPMI supplemented with GM-CSF 5 ng/ml.

Another experiment relates to BM cells. In words: Bone marrow cellularity (WBC) after 5 daily i.p. injections in mice. Type of experiment: in vivo. As to conditions: WBC on day 5, 4 hrs after last injection. On the procedure: For this purpose, mice were injected with 5 daily i.p injections of the dopamine agonist 7-OH-DPAT (1.5 mg/kg) or antagonist flupenthixol 5 (3 mg/kg) or remained untreated and the bone marrow cell mass was determined. On day 5, 4 hrs after last injection, mice were sacrificed, BM cells were flushed from BM (with a syringe), and White Blood Count (WBC) was determined.

The subject of experiment [5] is human CD34+ cells. On the procedure:
(viii) Chemotaxis assays. Chemotaxis experiments were assayed using transwells (6.5 mm diameter, 5 μm pore; Corning Inc., Corning, N.Y.) as previously described (1). […] Migrating cells were counted using FACSCalibur (Becton Dickinson).
We tested the effect of dopamine (1 nM-1 uM) on in vitro migration potential of immature human CD34^+ cells (50,000-100,000 cells in 100 ul). […] Since dopamine is highly oxidative, its agonists were used, particularly in treatments requiring longer incubation periods (FIG. 6D).

The test system of experiment [6] is dopamine receptors type 3 and 5 on the surface of CD34+ enriched cells. In words: Flow cytometry of dopamine receptor expression on CD34+ cells from BM of G-CSF treated or untreated donors. Format: in vivo, human. Particulars: CD34+ cells from BM of G-CSF treated healthy donors vs BM of untreated healthy donors. An excerpt: (i) Human cells and reagents. Human cord blood (CB), adult G-CSF mobilized peripheral blood (MPBL) and BM from normal or G-CSF treated donors mononuclear cells were obtained after informed consent in accordance with procedures approved by the human ethics committee of the Weizmann Institute of Science. The cell surface protein CD34 is frequently used as a marker for positive selection of human hematopoietic stem/progenitor cells in research and in transplantation. CD34^+ cell enrichment was performed using magnetic bead separation as previously described (Spiegel A et al Blood 2004; 2900-7). Cells were cultured in RPMI 1640 medium supplemented with 10% heat-inactivated FCS, antibiotics and glutamine.
Human CB cells were obtained from full-term deliveries after informed consent. Blood samples were diluted 1:1 in PBS. […]
(vi) Flow cytometry analysis. […] Human leukocytes were gated according to their expression of the pan-leukocyte marker CD45, and amongst this population the percentage of CD34+/CD38−/low primitive cells was determined. […] After staining, cells were washed in FACS buffer and analyzed by fluorescence-activated cell sorting (FACSCalibur and CellQuest software, Becton Dickinson).
Expression of dopamine receptors type 3 and 5 was evaluated on the surface of CD34^+ enriched cells that were obtained from different sources. […]
(In flow cytometry, cells or beads pass a laser one at a time.)

Experiment [7] has as its system beta-2 adrenergic receptor on CD34+ cells. In words: Flow cytometry of beta-2 adrenergic receptor on CD34+ cells. Set-up: species or system human. As to conditions: in vivo G-CSF stimulated (mobilized) peripheral blood CD34+ cells. An excerpt: We carried out experiments in order to test whether CD34+ cells are regulated by additional catecholamines neurotransmitters.

The subject of experiment [8] is dopamine receptor 3 and 5 on human CD34+/CD38-/low cells. Briefly: Dopamine receptor expression on human cells from BM of G-CSF treated chimeric NOD/SCID mice. As to conditions: 5 daily s.c. injections of G-CSF. Type of experiment: in vivo, human cells in NOD/SCID mice. On the procedure:
Mobilization in NOD/SCID mice engrafted with human cells was performed as follows: mice received a daily subcutaneous injection of G-CSF (Filgrastim, […] in […] 0.9% NaCl, 5% fetal calf serum (FCS), pH 4.55) for 5 consecutive days and were sacrificed 4 hrs after the last injection. Peripheral blood from mice asphyxied with dry ice was collected by cardiac aspiration in heparinized tubes. Number of WBC in the peripheral blood was determined.
(vi) Flow cytometry analysis. Phenotypes of human and murine cells were examined by immunostaining, followed by flow cytometry analysis on FACSCalibur (Becton Dickinson, San Jose, Calif.) with CellQuest software. Single cell suspension were prepared in PBS containing 0.01% sodium azide and 1% FCS. Human plasma and mouse IgG were used to block human and murine Fc-receptors. Isotype-matched control antibodies were used to exclude false positive cells. Staining was performed in 4° C. for 30 minutes. […] Human leukocytes were gated according to their expression of the pan-leukocyte marker CD45, and amongst this population the percentage of CD34+/CD38−/low primitive cells was determined. […] After staining, cells were washed in FACS buffer and analyzed by fluorescence-activated cell sorting (FACSCalibur and CellQuest software, Becton Dickinson). […]

For the molecule `Cl.Oc1cc2c(cc1O)C(c1ccccc1)CNCC2` (single isomer, unassigned; (+)) [SKF, (+)-1-phenyl-2,3,4,5-tetrahydro(1H)-3-benzazepine-7,8-diol hydrochloride], the “percent of cells that exhibited polarized morphology compared to control” value with cord blood CD34+ cells [1] is given as “more than doubled”. Besides, in experiment [2], the “spontaneous migration of murine bone marrow mononuclear cells” value is reported as “higher spontaneous migration”. In addition, the “engraftment in the murine BM compared to control cells” value with human CD34+ cells [3] is listed as 2 fold. Also, the “colony (CFU-C) formation in the presence of GM-CSF” value in the experiment on cord blood CD34+ cells [4] (CB CD34+ cells, Epo, SCF) is given as “augmented”. Besides, in the experiment on cord blood CD34+ cells [4] (CB CD34+ cells), the “colony formation, culture not supplemented with myeloid cytokines” value was “No increase”.
Consider `CCCN(CCC)C1CCc2ccc(O)cc2C1` (stereo not drawn) [7-OH-DPAT, 7-hydroxy-2-dipropylaminotetralin], for which the “percent of cells that exhibited polarized morphology compared to control” value in the experiment on cord blood CD34+ cells [1] is on record as “more than doubled”. Besides, the “spontaneous migration of murine bone marrow mononuclear cells” value in experiment [2] was “higher spontaneous migration”. Also, in the experiment with BM cells (7-OH-DPAT 1.5 mg/kg), the “increase in BM cellularity” value worked out at 50%. Besides, the “engraftment in the murine BM compared to control cells” value with human CD34+ cells [3] is reported as 2 fold. For the same molecule, the “colony formation in the presence of G-CSF” value with cord blood CD34+ cells [4] (CB CD34+ cells, Epo, SCF, IL-3 plus G-CSF 100 ng/ml, 7-OH-DPAT 100 nM) is reported as “the largest increase”. The “colony (CFU-C) formation in the presence of GM-CSF” value with cord blood CD34+ cells [4] (CB CD34+ cells, Epo, SCF) was “increased colony formation”. Further, in the experiment with cord blood CD34+ cells [4] (CB CD34+ cells), the “colony formation, culture not supplemented with myeloid cytokines” value is “No increase”.
As for `CN1CCN(C2=Nc3cc(Cl)ccc3Nc3ccccc32)CC1` [clozapine], the decrease in engraftment with human CD34+ cells [3] (MPB CD34+ cells pretreated with antagonist prior to injection, 5 weeks) is 50%.
On to `NCCc1ccc(O)c(O)c1` [dopamine], for which, in the experiment on human CD34+ cells [5] (cells pre-treated with GM-CSF, dopamine 10 nM (tested 1 nM-1 uM)), the “migration of cord blood CD34+ enriched cells towards dopamine in the lower chamber” value is on record as “significantly increased”. In the experiment on human CD34+ cells [5] (no GM-CSF pre-treatment, data not shown), the “migration of cord blood CD34+ cells towards dopamine, cells not pre-treated with GM-CSF” value is reported as “not detected”.
With `CNC[C@H](O)c1ccc(O)c(O)c1` [epinephrine], in the experiment on human CD34+ cells [3], the “engraftment of human CD34+ cells in NOD/SCID mice” value is reported as “enhance engraftment”. Also, in the experiment with cord blood CD34+ cells [4], the “clonogenic capacity of human cord blood CD34+ cells” value is given as “increase the clonogenic capacity”.
As for `OCCN1CCN(CCC=C2c3ccccc3Sc3ccc(C(F)(F)F)cc32)CC1` [flupenthixol, 2-[4-[3-[2-(trifluoromethyl)thioxanthen-9-ylidene]propyl]piperazin-1-yl]ethanol], in the experiment with BM cells (flupenthixol 3 mg/kg), the “decrease in BM cellularity” value was 25%.
In the case of `NC[C@H](O)c1ccc(O)c(O)c1` [norepinephrine], the “migration of CD34+ cells towards norepinephrine in the lower well” value with human CD34+ cells [5] (CB (GM-CSF pretreated) or MPB CD34+ cells, 1 or 10 nM norepinephrine) is listed as “increased migration”. In the experiment with human CD34+ cells [3], the “engraftment of human CD34+ cells in NOD/SCID mice” value is reported as “enhance engraftment”. Besides, in the experiment with cord blood CD34+ cells [4], the “clonogenic capacity of human cord blood CD34+ cells” value is “increase the clonogenic capacity”.

B1: G-CSF: myeloid cytokine, granulocyte colony-stimulating factor (Filgrastim, Roche) (protein, chains of the INN, looked up)
chain: MTPLGPASSLPQSFLLKCLEQVRKIQGDGAALQEKLCATYKLCHPEELVLLGHSLGIPWAPLSSCPSQALQLAGCLSQLHSGLFLYQGLLQALEGISPELGPTLDTLQLDVADFATTIWQQMEELGMAPALQPTQGAMPAFASAFQRRAGGVLVASHLQSFLEVSYRVLRHLAQP
Turning to B1, in [6], the “expression of dopamine receptor on the surface of enriched CD34+ cells, higher than untreated donors” value is recorded as 2-4 folds. Also, the “levels of β2-adrenergic receptor on CD34+ cells” value in experiment [7] is reported as “higher levels”. In experiment [8], the “level of dopamine receptor expression in the CD34+/CD38-/low cell population” value is “increase”.

The record behind these values is US8241903B2, “Catecholamine receptor modulation” (Yeda Research and Development Co., Ltd., priority 2006, dated 2012).
